For 13 compounds, IC50 results are on record in patent US7893066B2, “Pyridol[2,3-B]pyrazinones for use as stearoyl CoA desaturase inhibitors” (Gilead Palo Alto, Inc., priority 2006, dated 2011).

The IC50 is the concentration that gives 50% inhibition.

The assay concerns the target T1, stearoyl-CoA desaturase (SCD) (Rattus norvegicus, UniProt P07308).
T1 construct: from tissue; host or cells: liver microsomes of male Sprague Dawley rats, with SCD induced by a carbohydrate-rich diet
T1 sequence (P07308 1-358): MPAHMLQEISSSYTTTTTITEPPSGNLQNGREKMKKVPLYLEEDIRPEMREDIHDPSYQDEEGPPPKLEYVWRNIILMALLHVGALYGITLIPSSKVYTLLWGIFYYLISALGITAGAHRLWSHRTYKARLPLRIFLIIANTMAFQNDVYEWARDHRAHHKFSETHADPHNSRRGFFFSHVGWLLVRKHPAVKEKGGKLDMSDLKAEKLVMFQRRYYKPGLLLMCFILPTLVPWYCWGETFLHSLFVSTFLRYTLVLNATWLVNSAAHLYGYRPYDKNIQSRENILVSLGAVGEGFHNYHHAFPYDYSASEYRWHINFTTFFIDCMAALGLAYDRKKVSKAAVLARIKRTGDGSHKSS
Description: SCD assay, rat liver microsomes with [3H]stearoyl CoA (adapted from Talamo and Bloch). Format: biochemical. Particulars: second table, same SCD assay. An excerpt: The identification of compounds of the invention as SCD inhibitors was readily accomplished using the SCD enzyme and microsomal assay procedure described in Talamo and Bloch (1969) Analytical Biochemistry 29:300-304.
The rat liver microsomes were collected according to the procedure described in Ozols (1990) Methods Enzm, 182:225.
Male Spraque Dawley Rats were placed on regimented fasting protocol for one week to stimulate SCD enzymatic activity. 48-hour periods were alternated between feeding and fasting to induce and down-regulate SCD activity with SCD activity being induced via carbohydrate rich diet prior to liver perfusion and collection.
The rats were anesthetized with Isoflurane inhalation anesthetic, the liver perfused with cold phosphate buffered saline (PBS), weighed, and chilled in cold homogenization buffer (250 mM sucrose, 10 mM Tris, 1 mM EDTA, pH 7.6.
The livers were finely minced and placed in homogenization tube. 40 mL of homogenization buffer was added to the homogenization tube and the liver homogenized and centrifuged in a pre-chilled SLA-600 TC at 800G rotor for 10 min at 4° C.
Following centrifugation, the supernatant was collected and the pellet removed and discarded. This supernatant was then centrifuged at 10,000G for 35 minutes. Following centrifugation, the supernatant was collected and the pellet discarded. The supernatant was further centrifuged in a pre-chilled 45-Ti rotor at 130,000 G (41,000 RPM) for 90 minutes at 4° C.
The supernatant was then aspirated off and the collected microsomal pellet washed in 25 mL of Glycerol PBS (1×PBS 7.4, 20% Glycerol) and resuspended in 4-5 volumes of Glycerol PBS.
The protein concentration of the microsomal preparation was determined by BCA assay (Pierce) and the microsomes were aliquoted and stored at −80° C.
Biobeads were ground to a smaller size in a mortar and pestle and filtered through 300 μM mesh and then resuspended in 3.6% TCA.
SCD was determined in the desaturase assay buffer. This assay buffer contained 0.1 M Tris buffer, pH 7.2, 2 mM NADH, 4.8 mM ATP, 0.5 mM CoA, 4.8 mM MgCl2, and 0.1% BSA.
1 μl of each compound of Formula I was added to an assay plate by a low volume (0.5-10 μL) multichannel pipette. A DMSO control was also prepared. The microsomes were quickly thawed and added to assay buffer so that a concentration of 1-0.1 mg/ml was achieved (0.5-0.05 mg/ml assay final). 50 μl of the microsome suspension in assay buffer was then added into each well in the compound assay plate, the plate was covered, and the microsomes preincubated with the compounds for 30-60 minutes on the orbital shaker, 50-75 rpm, at room temperature.
After preincubation, the reaction was initiated by the addition of 50 μl of substrate solution (20 μM Stearoyl CoA, [3H]Stearoyl CoA, 74nCi) to the preincubated microsomes/compound suspensions in MilliQ (Millipore) H2O. The reaction mixtures were then incubated for 45 minutes on the orbital shaker at 50-75 rpm at room temperature.
The reaction was terminated by the addition of 10 μl of 21% trichloroacetic acid (TCA) to the reaction mixture followed incubation on the orbital shaker for 30 minutes at 50-75 rpm at room temperature followed by centrifugation for 5 minutes at 3700 rpm.
50 μl of a 6% Bio-Bead suspension in H2O was added to the reaction mixture and the assay plate was sealed. The Bio-Bead mixture was incubated on the orbital shaker for 1 to 24 hours, 100-150 rpm at room temperature, and then the mixture was centrifuged at 2000g for 5 minutes to pellet the Bio-Beads.
25 μl of the supernatant was harvested from each well and transferred to a detection plate. 100 μl of OptiPhase SuperMix scinitillation cocktail (containing sufficient NaOH to neutralize the TCA) was added and the solutions mixed by vigorous shaking (300-400 rpm) for 5 minutes at room temperature.
`COc1ccc(-c2nc3ccc(NCc4cc(C(F)(F)F)ccn4)cc3n(CCNC(C)=O)c2=O)cc1` [compound 64, N-(2-(3-(4-methoxyphenyl)-2-oxo-7-((4-(trifluoromethyl)pyridin-2-yl)methylamino)quinoxalin-1(2H)-yl)ethyl)acetamide]: half-maximal inhibition (IC50) was put at 39 nM.

For the compound “(R)-3-(2-(4-methoxyphenyl)-3-oxo-6-(3-(trifluoromethyl)benzylamino)pyrido[2,3-b]pyrazin-4(3H)-yl)butanamide [compound 22]”, the IC50 was 67 nM.

Regarding “(S)-2-hydroxy-N-(2-(3-methyl-2-oxo-7-(3-(trifluoromethyl)benzylamino)quinoxalin-1(2H)-yl)ethyl)propanamide [compound 48]”, the IC50 was determined as 8000 nM.

Take “(S)-3-(2-(4-methoxyphenyl)-3-oxo-6-(3-(trifluoromethyl)benzylamino)pyrido[2,3-b]pyrazin-4(3H)-yl)butanamide [compound 39]”: the IC50 turned out to be 19000 nM.

Regarding “(±)-2,3-dihydroxy-N-(2-(3-methyl-2-oxo-7-(3-(trifluoromethyl)benzylamino)-quinoxalin-1(2H)-yl)ethyl)-propanamide [compound 59]”, the IC50 is 360 nM.

As for “N-(2-(3-(4-methoxyphenyl)-7-(3-methylbenzylamino)-2-oxoquinoxalin-1(2H)-yl)ethyl)acetamide [compound 56]”, the IC50 is 18 nM.

In turn, “N-(2-(3-methyl-2-oxo-7-(3-(trifluoromethyl)benzylamino)quinoxalin-1(2H)-yl)ethyl)thiophene-3-carboxamide [compound 51]” displayed an IC50 of 2.6 nM.

With “N-(2-(3-oxo-6-(3-(trifluoromethyl)benzylamino)-2-(4-(trifluoromethyl)phenyl)pyrido[2,3-b]pyrazin-4(3H)-yl)ethyl)acetamide [compound 37]”, it took 1300 nM to reach half-maximal inhibition (IC50).

As to “N-(2-(6-(2-chlorobenzylamino)-2-(4-methoxyphenyl)-3-oxopyrido[2,3-b]pyrazin-4(3H)-yl)ethyl)acetamide [compound 1]”, inhibition was half-maximal at 4100 nM (IC50).

For “N-(2-(6-(3,4-dichlorobenzylamino)-2-(4-methoxyphenyl)-3-oxopyrido[2,3-b]pyrazin-4(3H)-yl)ethyl)-2-hydroxyacetamide [compound 34]”, inhibition was half-maximal at 120 nM (IC50).

Compound “N-(2-(6-(3-methoxybenzylamino)-2-(4-methoxyphenyl)-3-oxopyrido[2,3-b]pyrazin-4(3H)-yl)ethyl)acetamide [compound 13]” returned an IC50 of 760 nM. This IC50 lies about 6.3-fold higher than the previous one.

The compound “N-(2-(7-(2-(2-chlorophenoxy)ethylamino)-3-(4-methoxyphenyl)-2-oxoquinoxalin-1(2H)-yl)ethyl)acetamide [compound 55]” yielded an IC50 of 250 nM.

Consider “benzyl 1-(2-acetamidoethyl)-3-(3,4-dichlorophenyl)-2-oxo-1,2-dihydroquinoxalin-6-ylcarbamate [compound 47]”, for which it took 2300 nM to reach half-maximal inhibition (IC50). Compared with the last compound, the IC50 is about 9.2-fold higher.
